{
  "source": "ChEMBL document CHEMBL5096191",
  "about": "(J Med Chem, 2021)",
  "assay_type_in_all_cases": "functional, cell-based",
  "key": {"[1]": {"test_system": "Cannabinoid receptor 2 (Homo sapiens), P34972 [S285L]", "sequence (P34972 whole entry S285L)": "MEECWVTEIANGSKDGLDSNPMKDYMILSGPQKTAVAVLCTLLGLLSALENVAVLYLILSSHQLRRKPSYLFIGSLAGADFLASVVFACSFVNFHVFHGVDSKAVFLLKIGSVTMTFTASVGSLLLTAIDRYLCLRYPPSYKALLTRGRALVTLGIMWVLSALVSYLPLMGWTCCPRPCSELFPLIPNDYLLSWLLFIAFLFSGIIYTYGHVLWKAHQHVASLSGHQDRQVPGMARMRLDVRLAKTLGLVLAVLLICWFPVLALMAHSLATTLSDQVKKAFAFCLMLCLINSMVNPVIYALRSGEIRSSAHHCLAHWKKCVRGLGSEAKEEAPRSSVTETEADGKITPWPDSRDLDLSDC", "experiment": "Partial agonist activity at CBR2 S2857.39L mutant (unknown origin) stably expressed in HEK293T assessed as decrease in forskolin induced cAMP level preincubated for 15 mins followed by forskolin addition incubated for 15 mins by HTRF assay relative to control", "conditions": "filed as partial agonist, time 30.0 min"}, "[2]": {"test_system": "Cannabinoid receptor 2 (Homo sapiens), P34972 [V36M]", "sequence (P34972 whole entry V36M)": "as the sequence (P34972 whole entry S285L) above, with V36M, L285S counted along it", "experiment": "Partial agonist activity at CBR2 V361.35M mutant (unknown origin) stably expressed in HEK293T assessed as decrease in forskolin induced cAMP level preincubated for 15 mins followed by forskolin addition incubated for 15 mins by HTRF assay relative to control", "conditions": "filed as partial agonist, time 30.0 min"}, "[3]": {"test_system": "Cannabinoid receptor 2 (Homo sapiens), P34972 [A282M]", "sequence (P34972 whole entry A282M)": "as the sequence (P34972 whole entry S285L) above, with A282M, L285S counted along it", "experiment": "Partial agonist activity at CBR2 A2827.36M mutant (unknown origin) expressed in HEK293T assessed as increase in ERK1/2 phosphorylation incubated for 7 mins by AlphaScreenSureFire method relative to control", "conditions": "filed as partial agonist"}, "[4]": {"test_system": "Cannabinoid receptor 2 (Homo sapiens), P34972 [V36M]", "experiment": "Partial agonist activity at CBR2 V361.35M mutant (unknown origin) expressed in HEK293T assessed as increase in picometer shifts of reflected light wavelengths by DMR assay relative to control", "conditions": "filed as partial agonist"}, "[5]": {"test_system": "Cannabinoid receptor 2 (Homo sapiens), P34972 [V113M]", "sequence (P34972 whole entry V113M)": "as the sequence (P34972 whole entry S285L) above, with V113M, L285S counted along it", "experiment": "Partial agonist activity at CBR2 V1133.32M mutant (unknown origin) stably expressed in HEK293T assessed as decrease in forskolin induced cAMP level preincubated for 15 mins followed by forskolin addition incubated for 15 mins in presence of cannabidiol by HTRF assay relative to control", "conditions": "filed as partial agonist, time 30.0 min"}, "Cannabinoid receptor 2 [6]": {"target": "T1, Cannabinoid receptor 2 (Homo sapiens, UniProt P34972, V113M)", "T1 sequence (P34972 whole entry V113M)": "as the sequence (P34972 whole entry S285L) above, with V113M, L285S counted along it", "experiment": "Partial agonist activity at CBR2 V1133.32M mutant (unknown origin) expressed in HEK293T assessed as increase in ERK1/2 phosphorylation incubated for 7 mins in presence of cannabidiol by AlphaScreenSureFire method"}, "Cannabinoid receptor 2 [7]": {"target": "T2, Cannabinoid receptor 2 (Homo sapiens, UniProt P34972)", "T2 sequence (P34972 whole entry)": "as the sequence (P34972 whole entry S285L) above, with L285S counted along it", "experiment": "Partial agonist activity at wild type CB2 receptor (unknown origin) expressed in HEK293T assessed as increase in picometer shifts of reflected light wavelengths by DMR assay relative to control", "conditions": "filed as partial agonist"}, "Cannabinoid receptor 2 [8]": {"target": "T2, Cannabinoid receptor 2", "experiment": "(§1) Positive allosteric modulation of JWH-133-induced agonist activity at wild type CB2 receptor (unknown origin) stably expressed in HEK293T cells assessed as inhibition of forskolin-stimulated cAMP levels preincubated for 15 mins followed by forskolin addition incubated for 15 mins by HTRF assay"}, "Cannabinoid receptor 2 [9]": {"target": "T1, Cannabinoid receptor 2", "experiment": "Partial agonist activity at CBR2 V1133.32M mutant (unknown origin) stably expressed in HEK293T assessed as decrease in forskolin induced cAMP level preincubated for 15 mins followed by forskolin addition incubated for 15 mins in presence of cannabidiol by HTRF assay"}, "[10]": {"test_system": "Cannabinoid receptor 2 (Homo sapiens), P34972 [V113M]", "experiment": "Partial agonist activity at CBR2 V1133.32M mutant (unknown origin) stably expressed in HEK293T assessed as decrease in forskolin induced cAMP level preincubated for 15 mins followed by forskolin addition incubated for 15 mins by HTRF assay relative to control", "conditions": "filed as partial agonist, time 30.0 min"}, "[11]": {"test_system": "Cannabinoid receptor 2 (Homo sapiens), P34972 [V113M]", "experiment": "Partial agonist activity at CBR2 V1133.32M mutant (unknown origin) expressed in HEK293T assessed as increase in picometer shifts of reflected light wavelengths in presence of cannabidiol by DMR assay relative to control", "conditions": "filed as partial agonist"}, "Cannabinoid receptor 2 [12]": {"target": "T2, Cannabinoid receptor 2", "experiment": "Partial agonist activity at wild type CB2 receptor (unknown origin) expressed in HEK293T assessed as increase in ERK1/2 phosphorylation incubated for 7 mins by AlphaScreenSureFire method relative to control", "conditions": "filed as partial agonist"}, "Cannabinoid receptor 2 [13]": {"target": "T2, Cannabinoid receptor 2", "experiment": "Partial agonist activity at wild type CB2 receptor (unknown origin) stably expressed in HEK293T assessed as decrease in forskolin induced cAMP level preincubated for 15 mins followed by forskolin addition incubated for 15 mins by HTRF assay relative to control", "conditions": "filed as partial agonist, time 30.0 min"}, "Cannabinoid receptor 2 [14]": {"target": "T2, Cannabinoid receptor 2", "experiment": "as §1, with “assay relative to control” for “assay”", "conditions": "filed as positive allosteric modulator, time 30.0 min"}, "[15]": {"test_system": "Cannabinoid receptor 2 (Homo sapiens), P34972 [V36M]", "experiment": "Partial agonist activity at CBR2 V361.35M mutant (unknown origin) expressed in HEK293T assessed as increase in ERK1/2 phosphorylation incubated for 7 mins by AlphaScreenSureFire method relative to control", "conditions": "filed as partial agonist"}, "Cannabinoid receptor 2 [16]": {"target": "T1, Cannabinoid receptor 2", "experiment": "Partial agonist activity at CBR2 V1133.32M mutant (unknown origin) expressed in HEK293T assessed as increase in ERK1/2 phosphorylation incubated for 7 mins by AlphaScreenSureFire method"}, "[17]": {"test_system": "Cannabinoid receptor 2 (Homo sapiens), P34972 [V113M]", "experiment": "Partial agonist activity at CBR2 V1133.32M mutant (unknown origin) expressed in HEK293T assessed as increase in ERK1/2 phosphorylation incubated for 7 mins by AlphaScreenSureFire method relative to control", "conditions": "filed as partial agonist"}, "Cannabinoid receptor 2 [18]": {"target": "T1, Cannabinoid receptor 2", "experiment": "Partial agonist activity at CBR2 V1133.32M mutant (unknown origin) expressed in HEK293T assessed as increase in picometer shifts of reflected light wavelengths in presence of cannabidiol by DMR assay"}, "[19]": {"test_system": "Cannabinoid receptor 2 (Homo sapiens), P34972 [S285L]", "experiment": "Partial agonist activity at CBR2 S2857.39L mutant (unknown origin) expressed in HEK293T assessed as increase in ERK1/2 phosphorylation incubated for 7 mins by AlphaScreenSureFire method relative to control", "conditions": "filed as partial agonist"}, "[20]": {"test_system": "Cannabinoid receptor 2 (Homo sapiens), P34972 [V36M]", "experiment": "Partial agonist activity at CBR2 V361.35M mutant (unknown origin) stably expressed in HEK293T assessed as decrease in forskolin induced cAMP level preincubated for 15 mins followed by forskolin addition incubated for 15 mins in presence of cannabidiol by HTRF assay relative to control", "conditions": "filed as partial agonist, time 30.0 min"}, "Cannabinoid receptor 2 [21]": {"target": "Cannabinoid receptor 2 (Homo sapiens, UniProt P34972, V36M)", "sequence (P34972 whole entry V36M)": "as the sequence (P34972 whole entry S285L) above, with V36M, L285S counted along it", "experiment": "Partial agonist activity at CBR2 V361.35M mutant (unknown origin) expressed in HEK293T assessed as increase in picometer shifts of reflected light wavelengths by DMR assay"}, "Cannabinoid receptor 2 [22]": {"target": "Cannabinoid receptor 2 (Homo sapiens, UniProt P34972, S285L)", "sequence (P34972 whole entry S285L)": "as the sequence (P34972 whole entry S285L) above", "experiment": "Partial agonist activity at CBR2 S2857.39L mutant (unknown origin) stably expressed in HEK293T assessed as decrease in forskolin induced cAMP level preincubated for 15 mins followed by forskolin addition incubated for 15 mins in presence of cannabidiol by HTRF assay"}, "[23]": {"test_system": "Cannabinoid receptor 2 (Homo sapiens), P34972 [S285L]", "experiment": "Partial agonist activity at CBR2 S2857.39L mutant (unknown origin) expressed in HEK293T assessed as increase in picometer shifts of reflected light wavelengths in presence of cannabidiol by DMR assay relative to control", "conditions": "filed as partial agonist"}, "Cannabinoid receptor 2 [24]": {"target": "Cannabinoid receptor 2 (Homo sapiens, UniProt P34972, A282M)", "sequence (P34972 whole entry A282M)": "as the sequence (P34972 whole entry S285L) above, with A282M, L285S counted along it", "experiment": "Partial agonist activity at CBR2 A2827.36M mutant (unknown origin) stably expressed in HEK293T assessed as decrease in forskolin induced cAMP level preincubated for 15 mins followed by forskolin addition incubated for 15 mins in presence of cannabidiol by HTRF assay"}, "Cannabinoid receptor 2 [25]": {"target": "T2, Cannabinoid receptor 2", "experiment": "Partial agonist activity at wild type CB2 receptor (unknown origin) stably expressed in HEK293T assessed as decrease in forskolin induced cAMP level preincubated for 15 mins followed by forskolin addition incubated for 15 mins in presence of cannabidiol by HTRF assay relative to control", "conditions": "filed as partial agonist, time 30.0 min"}, "[26]": {"test_system": "Cannabinoid receptor 2 (Homo sapiens), P34972 [V36M]", "experiment": "Partial agonist activity at CBR2 V361.35M mutant (unknown origin) expressed in HEK293T assessed as increase in ERK1/2 phosphorylation incubated for 7 mins in presence of cannabidiol by AlphaScreenSureFire method relative to control", "conditions": "filed as partial agonist"}},
  "data": [
    {"molecule": "CCCC(C)(C)c1cc(O)c2c(c1)OC(C)(C)[C@@H]1CC=C(C)C[C@@H]21", "values": [
      {"measurement": "Emax", "setting": "[1]", "result": 49.3, "unit": "%"},
      {"measurement": "Emax", "setting": "[2]", "result": 56.7, "unit": "%"},
      {"measurement": "Emax", "setting": "[3]", "result": 376, "unit": "%"},
      {"measurement": "Emax", "setting": "[4]", "result": 193, "unit": "%"},
      {"measurement": "Emax", "setting": "[5]", "result": 77.8, "unit": "%"},
      {"measurement": "EC50", "setting": "Cannabinoid receptor 2 [6]", "result": 39.8, "unit": "nM"},
      {"measurement": "Emax", "setting": "Cannabinoid receptor 2 [7]", "result": 183, "unit": "%"},
      {"measurement": "EC50", "setting": "Cannabinoid receptor 2 [8]", "result": 25.1, "unit": "nM"},
      {"measurement": "EC50", "setting": "Cannabinoid receptor 2 [9]", "result": 25.1, "unit": "nM"},
      {"measurement": "Emax", "setting": "[10]", "result": 72.5, "unit": "%"},
      {"measurement": "Emax", "setting": "[11]", "result": 71.9, "unit": "%"},
      {"measurement": "Emax", "setting": "Cannabinoid receptor 2 [12]", "result": 322, "unit": "%"},
      {"measurement": "Emax", "setting": "Cannabinoid receptor 2 [13]", "result": 46, "unit": "%"},
      {"measurement": "Emax", "setting": "Cannabinoid receptor 2 [14]", "result": 56, "unit": "%"},
      {"measurement": "Emax", "setting": "[15]", "result": 363, "unit": "%"},
      {"measurement": "EC50", "setting": "Cannabinoid receptor 2 [16]", "result": 20, "unit": "nM"},
      {"measurement": "Emax", "setting": "[17]", "result": 276, "unit": "%"},
      {"measurement": "EC50", "setting": "Cannabinoid receptor 2 [18]", "result": 398, "unit": "nM"},
      {"measurement": "Emax", "setting": "[19]", "result": 374, "unit": "%"},
      {"measurement": "Emax", "setting": "[20]", "result": 53, "unit": "%"},
      {"measurement": "EC50", "setting": "Cannabinoid receptor 2 [21]", "result": 631, "unit": "nM"},
      {"measurement": "EC50", "setting": "Cannabinoid receptor 2 [22]", "result": 39.8, "unit": "nM"},
      {"measurement": "Emax", "setting": "[23]", "result": 165, "unit": "%"},
      {"measurement": "EC50", "setting": "Cannabinoid receptor 2 [24]", "result": 7.94, "unit": "nM"},
      {"measurement": "Emax", "setting": "Cannabinoid receptor 2 [25]", "result": 57.8, "unit": "%"},
      {"measurement": "Emax", "setting": "[26]", "result": 353, "unit": "%"}
    ]}
  ]
}
